Laboratory results taken from ChEMBL document CHEMBL1201862, “PubChem BioAssay data set” (2004).
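Protocol summary: plate cells (96-well), add compound at 5 concentrations, incubate 48 h, interpolate endpoints linearly. GI50 = concentration required for 50% inhibition of growth.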 The source made the active and inactive calls. Rule as the data show it: active = GI50 up to about 1.1 µM and inactive = higher.

Columns and labels:
Assay in all cases: NCI anticancer screen, dose series, 48 h
[1] = test system: HL-60
[2] = test system: UO-31
[3] = test system: Malme-3M
[4] = test system: HT-29
[5] = test system: OVCAR-8
[6] = test system: SK-OV-3
[7] = test system: 786-0
[8] = test system: HCT-116
[9] = test system: RPMI-8226
[10] = test system: CAKI-1
[11] = test system: CCRF-CEM
[12] = test system: UACC-62
[13] = test system: SK-MEL-2
[14] = test system: SK-MEL-28
[15] = test system: MDA-N
[16] = test system: SW-620
[17] = test system: OVCAR-3
[18] = test system: K562
[19] = test system: MCF7
[20] = test system: EKVX
[21] = test system: HCC 2998
[22] = test system: Hs-578T
[23] = test system: HOP-92
[24] = test system: SNB-19
[25] = test system: NCI-H460
[26] = test system: IGROV-1
[27] = test system: ACHN
[28] = test system: PC-3
[29] = test system: SN12C
[30] = test system: SF-295
[31] = test system: U-251
[32] = test system: T47D
[33] = test system: SNB-75
[34] = test system: MDA-MB-231
[35] = test system: COLO 205
[36] = test system: NCI/ADR-RES
[37] = test system: OVCAR-4
[38] = test system: MDA-MB-435
[39] = test system: OVCAR-5
[40] = test system: UACC-257
[41] = test system: A549
[42] = test system: SR
[43] = test system: SK-MEL-5
[44] = test system: NCI-H226
[45] = test system: SF-539
[46] = test system: HCT-15
[47] = test system: A498
[48] = test system: KM12
[49] = test system: HOP-62
[50] = test system: DU-145
[51] = test system: BT-549
[52] = test system: NCI-H522
[53] = test system: SF-268
[54] = test system: NCI-H23
[55] = test system: MOLT-4
[56] = test system: M14
[57] = test system: TK-10
[58] = test system: RXF 393
[59] = test system: LOX IMVI

O=[N+]([O-])c1ccc(Cl)cc1-n1nc(-c2ccccc2)cc1-c1ccccc1 was tested, and the GI50 [1] was > 100 µM (inactive), the GI50 [2] was > 100 µM (inactive) and the GI50 [3] was > 100 µM (inactive). For the same compound, the GI50 [4] was 97.3 µM (inactive), the GI50 [5] was > 100 µM (inactive) and the GI50 [6] was > 100 µM (inactive). The GI50 [7] was > 100 µM (inactive), the GI50 [8] was 99.8 µM (inactive) and the GI50 [9] was > 100 µM (inactive). The GI50 [10] was > 100 µM (inactive), the GI50 [11] was > 100 µM (inactive) and the GI50 [12] was > 100 µM (inactive). The GI50 [13] was > 100 µM (inactive), the GI50 [14] was > 100 µM (inactive) and the GI50 [15] was > 100 µM (inactive). For the same compound, the GI50 [16] was > 100 µM (inactive), the GI50 [17] was > 100 µM (inactive) and the GI50 [18] was > 100 µM (inactive). The GI50 [19] was 95.1 µM (inactive), the GI50 [20] was > 100 µM (inactive) and the GI50 [21] was > 100 µM (inactive). The GI50 [22] was 81.3 µM (inactive), the GI50 [23] was > 100 µM (inactive) and the GI50 [24] was > 100 µM (inactive). The GI50 [25] was > 100 µM (inactive), the GI50 [26] was > 100 µM (inactive) and the GI50 [27] was > 100 µM (inactive). The GI50 [28] was > 100 µM (inactive), the GI50 [29] was > 100 µM (inactive) and the GI50 [30] was > 100 µM (inactive). The GI50 [31] was > 100 µM (inactive), the GI50 [32] was 22.3 µM (inactive) and the GI50 [33] was > 100 µM (inactive). For the same compound, the GI50 [34] was > 100 µM (inactive), the GI50 [35] was > 100 µM (inactive) and the GI50 [36] was > 100 µM (inactive). For the same compound, the GI50 [37] was > 100 µM (inactive), the GI50 [38] was > 100 µM (inactive) and the GI50 [39] was > 100 µM (inactive). The GI50 [40] was > 100 µM (inactive), the GI50 [41] was > 100 µM (inactive) and the GI50 [42] was > 100 µM (inactive). For the same compound, the GI50 [43] was > 100 µM (inactive), the GI50 [44] was > 100 µM (inactive) and the GI50 [45] was 50.5 µM (inactive). For the same compound, the GI50 [46] was greater than 100 µM, the GI50 [47] was > 100 µM (inactive) and the GI50 [48] was > 100 µM (inactive). The GI50 [49] was > 10 µM (inactive), the GI50 [50] was > 100 µM (inactive) and the GI50 [51] was > 100 µM (inactive). For the same compound, the GI50 [52] was > 100 µM (inactive), the GI50 [53] was > 100 µM (inactive) and the GI50 [54] was > 100 µM (inactive). For the same compound, the GI50 [55] was > 100 µM (inactive), the GI50 [56] was > 100 µM (inactive) and the GI50 [57] was > 100 µM (inactive).
With CC(O)(Cc1ccccc1C#N)Cc1ccccc1C#N the GI50 [1] was 4 µM (inactive), the GI50 [3] was > 100 µM (inactive) and the GI50 [4] was > 100 µM (inactive). For the same compound, the GI50 [5] was 54.7 µM (inactive), the GI50 [6] was > 100 µM (inactive) and the GI50 [7] was > 100 µM (inactive). For the same compound, the GI50 [8] was > 100 µM (inactive), the GI50 [58] was > 100 µM (inactive) and the GI50 [10] was > 100 µM (inactive). For the same compound, the GI50 [12] was 59.8 µM (inactive), the GI50 [13] was > 100 µM (inactive) and the GI50 [14] was > 100 µM (inactive). For the same compound, the GI50 [15] was > 100 µM (inactive), the GI50 [16] was > 100 µM (inactive) and the GI50 [17] was 65.6 µM (inactive). For the same compound, the GI50 [18] was 50 µM (inactive), the GI50 [19] was > 100 µM (inactive) and the GI50 [20] was > 100 µM (inactive). The GI50 [21] was > 100 µM (inactive), the GI50 [22] was > 100 µM (inactive) and the GI50 [23] was 95.5 µM (inactive). For the same compound, the GI50 [24] was > 100 µM (inactive), the GI50 [25] was 73.6 µM (inactive) and the GI50 [26] was > 100 µM (inactive). For the same compound, the GI50 [27] was 88.5 µM (inactive), the GI50 [28] was 71.3 µM (inactive) and the GI50 [29] was > 100 µM (inactive). For the same compound, the GI50 [30] was 74 µM (inactive), the GI50 [31] was > 100 µM (inactive) and the GI50 [32] was 37.6 µM (inactive). For the same compound, the GI50 [33] was 37 µM (inactive), the GI50 [34] was > 100 µM (inactive) and the GI50 [35] was 70.8 µM (inactive). For the same compound, the GI50 [36] was 27.9 µM (inactive), the GI50 [59] was > 100 µM (inactive) and the GI50 [37] was 54.2 µM (inactive). For the same compound, the GI50 [38] was > 100 µM (inactive), the GI50 [39] was > 100 µM (inactive) and the GI50 [40] was 89.7 µM (inactive). For the same compound, the GI50 [41] was > 100 µM (inactive), the GI50 [42] was > 100 µM (inactive) and the GI50 [43] was 57.3 µM (inactive). The GI50 [44] was 50 µM (inactive), the GI50 [45] was > 100 µM (inactive) and the GI50 [46] was 79.3 µM. The GI50 [47] was > 100 µM (inactive), the GI50 [48] was 51.5 µM (inactive) and the GI50 [49] was > 100 µM (inactive). The GI50 [50] was > 100 µM (inactive), the GI50 [51] was 38.5 µM (inactive) and the GI50 [52] was > 100 µM (inactive). For the same compound, the GI50 [53] was > 100 µM (inactive), the GI50 [55] was 28.6 µM (inactive) and the GI50 [56] was > 100 µM (inactive). The GI50 [57] was > 100 µM (inactive).
